According to ChEMBL document CHEMBL1133906, “Leishmanicidal activity of some stilbenoids and related heterocyclic compounds” (Bioorg Med Chem Lett, 2001):
≈ marks a conversion by molar mass, not a printed value.

How the values were obtained:
Format in all cases: functional, organism-based
[1] = tested on: Leishmania braziliensis; assay: In vitro inhibitory activity against Leishmania braziliensis (M2903)
[2] = tested on: Leishmania donovani; assay: In vitro inhibitory activity against Leishmania donovani (PP75)
[3] = tested on: Leishmania amazonensis; assay: In vitro inhibitory activity against Leishmania amazonensis (PH8)

Structure (SMILES)	IC50 [1]	IC50 [2]	IC50 [3]
COc1ccc(CCc2cc(O)cc(OC)c2C(=O)N2CCCCC2)cc1	10 µg/mL (≈ 27.1 µM)	7 µg/mL (≈ 18.9 µM)	7 µg/mL (≈ 18.9 µM)
COc1ccc(/C=C2/c3ccccc3C(=O)N2NC(C)(C)C)cc1	≥ 100 µg/mL	≥ 100 µg/mL	≥ 100 µg/mL
COc1ccc(Cc2nn(C)c(=O)c3ccccc23)cc1OC	≥ 100 µg/mL	≥ 100 µg/mL	≥ 100 µg/mL
O=C(C(=O)c1ccccc1C(=O)N1CCCCC1)c1ccccc1	75 µg/mL (≈ 233 µM)	75 µg/mL (≈ 233 µM)	75 µg/mL (≈ 233 µM)
COc1cc(CC2(O)c3ccccc3C3=NCCN32)cc(OC)c1OC (stereo unspecified)	≥ 100 µg/mL	≥ 100 µg/mL	≥ 100 µg/mL
COc1ccc(C(=O)C(=O)c2ccccc2C(=O)N2CCCC2)cc1	≥ 100 µg/mL	≥ 100 µg/mL	≥ 100 µg/mL
O=c1[nH]nc(Cc2ccccc2)c2ccccc12	≥ 100 µg/mL	≥ 100 µg/mL	≥ 100 µg/mL
COc1ccc(CC(=O)c2ccccc2C(=O)N2CCCCC2)cc1	≥ 100 µg/mL	≥ 100 µg/mL	≥ 100 µg/mL
COc1ccc(C(=O)C(=O)c2ccccc2C(=O)N2CCCCC2)cc1OC	≥ 100 µg/mL	≥ 100 µg/mL	≥ 100 µg/mL
COc1cc(CC2(O)c3ccccc3C3=NCCCN32)cc(OC)c1OC (stereo unspecified)	≥ 100 µg/mL	≥ 100 µg/mL	≥ 100 µg/mL
COc1ccc(CC2(O)c3ccccc3C3=NCCCN32)cc1 (stereo unspecified)	≥ 100 µg/mL	≥ 100 µg/mL	≥ 100 µg/mL
COc1ccc(Cc2nnc(O)c3ccccc23)cc1	≥ 100 µg/mL	≥ 100 µg/mL	≥ 100 µg/mL
O=C(Cc1ccccc1)c1ccccc1C(=O)N1CCCCC1	≥ 100 µg/mL	≥ 100 µg/mL	≥ 100 µg/mL
Cn1nc(Cc2ccccc2)c2ccccc2c1=O	≥ 100 µg/mL	≥ 100 µg/mL	≥ 100 µg/mL
O=C1O/C(=C\c2ccc3c(c2)OCO3)c2ccccc21	≥ 100 µg/mL	≥ 100 µg/mL	≥ 100 µg/mL
O=C1O/C(=C\c2ccccc2)c2ccccc21	45 µg/mL (≈ 202 µM)	45 µg/mL (≈ 202 µM)	45 µg/mL (≈ 202 µM)
COc1cc(CC(=O)c2ccccc2C(=O)N2CCCCC2)cc(OC)c1OC	7 µg/mL (≈ 17.6 µM)	20 µg/mL (≈ 50.3 µM)	10 µg/mL (≈ 25.2 µM)
COc1cc(/C=C2\OC(=O)c3ccccc32)cc(OC)c1OC	≥ 100 µg/mL	≥ 100 µg/mL	52 µg/mL (≈ 166 µM)
N=C(N)c1ccc(OCCCCCOc2ccc(C(=N)N)cc2)cc1 [PENTAMIDINE]	1.3 µg/mL (≈ 3.82 µM)	1.3 µg/mL (≈ 3.82 µM)	1.3 µg/mL (≈ 3.82 µM)
COC(=O)c1c(CCc2ccc(OC)cc2)cc(O)cc1OC	≥ 100 µg/mL	≥ 100 µg/mL	≥ 100 µg/mL
Cn1nc(Cc2ccc3c(c2)OCO3)c2ccccc2c1=O	≥ 100 µg/mL	≥ 100 µg/mL	≥ 100 µg/mL
COc1ccc(Cc2nn(C)c(=O)c3ccccc23)cc1	≥ 100 µg/mL	≥ 100 µg/mL	≥ 100 µg/mL
COc1ccc(/C=C2\OC(=O)c3ccccc32)cc1	≥ 100 µg/mL	≥ 100 µg/mL	≥ 100 µg/mL
OC1(Cc2ccccc2)c2ccccc2C2=NCCN21 (stereo unspecified)	60 µg/mL (≈ 227 µM)	60 µg/mL (≈ 227 µM)	60 µg/mL (≈ 227 µM)
OC1(Cc2ccc(Cl)cc2)c2ccccc2C2=NCCCN21 (stereo unspecified)	≥ 100 µg/mL	≥ 100 µg/mL	≥ 100 µg/mL
COc1ccc(CC2(O)c3ccccc3C(=O)N2NC(C)(C)C)cc1 (stereo unspecified)	≥ 100 µg/mL	≥ 100 µg/mL	≥ 100 µg/mL

Structure (SMILES)	IC50 [1]	IC50 [2]	IC50 [3]
CCN(CC)C(=O)c1ccccc1C(=O)C(=O)c1ccc(OC)cc1	75 µg/mL (≈ 221 µM)	75 µg/mL (≈ 221 µM)	75 µg/mL (≈ 221 µM)
OC1(Cc2ccc(Cl)cc2)c2ccccc2C2=NCCN21 (stereo unspecified)	≥ 100 µg/mL	≥ 100 µg/mL	≥ 100 µg/mL
COc1ccc(CC2(O)c3ccccc3C3=NCCCN32)cc1OC (stereo unspecified)	≥ 100 µg/mL	≥ 100 µg/mL	≥ 100 µg/mL
COc1ccc(CCc2cc(O)cc(OC)c2C(=O)O)cc1 [ISONOTHOLAENIC ACID]	32 µg/mL (≈ 106 µM)	32 µg/mL (≈ 106 µM)	32 µg/mL (≈ 106 µM)
COc1ccc(CC2(O)c3ccccc3C3=NCCN32)cc1OC (stereo unspecified)	≥ 100 µg/mL	≥ 100 µg/mL	≥ 100 µg/mL
O=C(Cc1ccc(Cl)cc1)c1ccccc1C(=O)N1CCCCC1	≥ 100 µg/mL	≥ 100 µg/mL	≥ 100 µg/mL
OC1(Cc2ccccc2)c2ccccc2C2=NCCCN21 (stereo unspecified)	45 µg/mL (≈ 162 µM)	45 µg/mL (≈ 162 µM)	45 µg/mL (≈ 162 µM)
O=C(C(=O)c1ccccc1C(=O)N1CCCCC1)c1ccc2c(c1)OCO2	≥ 100 µg/mL	≥ 100 µg/mL	≥ 100 µg/mL
OC1(Cc2ccc3c(c2)OCO3)c2ccccc2C2=NCCN21 (stereo unspecified)	≥ 100 µg/mL	≥ 100 µg/mL	≥ 100 µg/mL
Cn1nc(Cc2ccc(Cl)cc2)c2ccccc2c1=O	≥ 100 µg/mL	64 µg/mL (≈ 225 µM)	≥ 100 µg/mL
COc1ccc(Cc2nnc(O)c3ccccc23)cc1OC	≥ 100 µg/mL	≥ 100 µg/mL	≥ 100 µg/mL
COc1cc(Cc2nn(C)c(=O)c3ccccc23)cc(OC)c1OC	≥ 100 µg/mL	≥ 100 µg/mL	≥ 100 µg/mL
COc1cc(Cc2nnc(O)c3ccccc23)cc(OC)c1OC	≥ 100 µg/mL	≥ 100 µg/mL	≥ 100 µg/mL
Oc1nnc(Cc2ccc(Cl)cc2)c2ccccc12	≥ 100 µg/mL	≥ 100 µg/mL	≥ 100 µg/mL
COc1ccc(CC(=O)c2ccccc2C(=O)N2CCCCC2)cc1OC	≥ 100 µg/mL	≥ 100 µg/mL	≥ 100 µg/mL
COc1ccc(/C=C2\OC(=O)c3ccccc32)cc1OC	≥ 100 µg/mL	≥ 100 µg/mL	≥ 100 µg/mL
Oc1nnc(Cc2ccc3c(c2)OCO3)c2ccccc12	≥ 100 µg/mL	≥ 100 µg/mL	≥ 100 µg/mL
O=C1O/C(=C\c2ccc(Cl)cc2)c2ccccc21	≥ 100 µg/mL	52 µg/mL (≈ 203 µM)	≥ 100 µg/mL
COc1ccc(C(=O)C(=O)c2ccccc2C(=O)N2CCCCC2)cc1	80 µg/mL (≈ 228 µM)	80 µg/mL (≈ 228 µM)	≥ 100 µg/mL
COc1ccc(CCc2cc(O)cc(OC)c2)cc1	≥ 100 µg/mL	≥ 100 µg/mL	≥ 100 µg/mL
COc1cc(C(=O)C(=O)c2ccccc2C(=O)N2CCCCC2)cc(OC)c1OC	52 µg/mL (≈ 126 µM)	52 µg/mL (≈ 126 µM)	28 µg/mL (≈ 68.1 µM)
O=C(Cc1ccc2c(c1)OCO2)c1ccccc1C(=O)N1CCCCC1	≥ 100 µg/mL	≥ 100 µg/mL	≥ 100 µg/mL
O=C(C(=O)c1ccccc1C(=O)N1CCCCC1)c1ccc(Cl)cc1	52 µg/mL (≈ 146 µM)	28 µg/mL (≈ 78.7 µM)	25 µg/mL (≈ 70.3 µM)
OC1(Cc2ccc3c(c2)OCO3)c2ccccc2C2=NCCCN21 (stereo unspecified)	≥ 100 µg/mL	≥ 100 µg/mL	≥ 100 µg/mL
COc1ccc(CC2(O)c3ccccc3C3=NCCN32)cc1 (stereo unspecified)	≥ 100 µg/mL	≥ 100 µg/mL	≥ 100 µg/mL
COc1ccc(CCc2cc(OC(C)=O)cc(OC)c2C(=O)O)cc1	62 µg/mL (≈ 180 µM)	62 µg/mL (≈ 180 µM)	62 µg/mL (≈ 180 µM)
